# Experimental data taken from US20130172246A1, “INSULIN GLARGINE VERSUS METFORMIN FOR THE FIRST-LINE TREATMENT OF EARLY TYPE-2 DIABETES” (priority 2011, published 2013).
# Tested on: type 2 diabetes patients
# Assay: Continuous glucose monitoring (CGM) with standardized test meal, clinical trial insulin glargine vs. metformin
# Assay type: in vivo, human
# Set-up: AUC 2hpp value after a test meal - Visit 1 / AUC 2hpp value after a test meal - Visit 8 / AUC day 2 - visit 8 / AUC day 2 - change / AUC day 3 - visit 8 / AUC day 3 - change / AUC 2 h incremental after TM - visit 8 / AUC 2 h incremental after TM - change / AUC between 5.6 and fasting on day 2 - visit 8 / AUC between 5.6 and fasting on day 2 - change / AUC between 5.6 and fasting on day 3 - visit 8 / AUC between 5.6 and fasting on day 3 - change / AUC 2 h after test meal - visit 8 / AUC 2 h after test meal change: unit not given beside the values
# Settings: for Glycemic load - visit 8: (FG+Peak+2hppG)·⅓; for Glycemic load - visit 8 / MAGE - visit 8 / AUC day 2 - change / AUC day 2 - visit 8 / AUC day 3 - change / AUC day 3 - visit 8 / AUC between 5.6 and fasting on day 2 - change / AUC between 5.6 and fasting on day 3 - change / AUC 2 h after test meal change / AUC 2 h incremental after TM - change / Glycemic load - change / MAGE - change / AUC 2 h after test meal - visit 8 / AUC between 5.6 and fasting on day 2 - visit 8 / AUC between 5.6 and fasting on day 3 - visit 8 / AUC 2 h incremental after TM - visit 8: per protocol; for Glycemic load - visit 8 / MAGE - visit 8 / AUC day 2 - visit 8 / AUC day 3 - visit 8 / AUC 2 h after test meal - visit 8 / AUC between 5.6 and fasting on day 2 - visit 8 / AUC between 5.6 and fasting on day 3 - visit 8 / AUC 2 h incremental after TM - visit 8: week 36; for Glycemic load - visit 8 / AUC 2hpp value after a test meal - Visit 1 / MAGE - visit 8 / AUC 2 h after test meal change / AUC 2 h incremental after TM - change / Glycemic load - change / MAGE - change / AUC 2 h incremental after TM - visit 8 / AUC 2hpp value after a test meal - Visit 8: mean (SD); for fall of the total area under the curve (AUC-IG): CGM, p=0.04; for fall of the total area under the curve (AUC-IG) / decrease in the interstitial glucose level during CGM (Δ): start to end of study; for AUC 2hpp value after a test meal - Visit 1: baseline (week 0) before treatment; for MAGE - visit 8: mean amplitude of glycemic excursions; for AUC day 2 - change / AUC day 2 - visit 8: CGM day 2; for AUC day 2 - change / AUC day 3 - change / AUC between 5.6 and fasting on day 2 - change / AUC between 5.6 and fasting on day 3 - change / AUC 2 h after test meal change / AUC 2 h incremental after TM - change / Glycemic load - change / MAGE - change: change visit 1 to visit 8; for AUC day 2 - change / AUC day 2 - visit 8 / AUC day 3 - change / AUC day 3 - visit 8 / AUC between 5.6 and fasting on day 2 - change / AUC between 5.6 and fasting on day 3 - change / AUC 2 h after test meal - visit 8 / AUC between 5.6 and fasting on day 2 - visit 8 / AUC between 5.6 and fasting on day 3 - visit 8: mean; for AUC day 3 - change / AUC day 3 - visit 8: CGM day 3; for decrease in the interstitial glucose level during CGM (Δ): GLA vs. MET p=0.02; for AUC 2hpp value after a test meal - Visit 8: week 36 of treatment
# Protocol: The primary target variable determined was the Area Under the Curve (AUC) in mmol/L/time in subcutaneous abdominal fat after a test meal (TM) in a 2-hour course, which was determined by continuous blood glucose monitoring. The test meal was administered on the 2nd day of the CGM as breakfast. • AUC [mmol/L/time] 2 h pp
# CGMS: The system used for continuous glucose monitoring is the CGMS from Medtronic, CGMS® System Gold™ monitor/MiniMed glucose subcutaneous sensor. The system is authorized for continuous glucose monitoring over a period of 72 h. The measurement sensor is inserted into subcutaneous fat tissue with the aid of an applicator. The entire sensor is stuck on the skin using a plaster. This is followed by the calibration of the device for approximately 5 hours, during which the subcutaneous levels are synchronized with the capillary blood glucose levels. Over the course of 72 h, further calibrations are required, as recommended by the manufacturer. The measured data of the sensor are transmitted by means of radio frequency to the CGMS® System Gold™ monitor, which is worn on the belt for example. After completion of the measurement period, the sensor is removed and the data of the monitor are evaluated on the computer using the software. For the evaluation, only the measured data of the first 48 hours are used, since the accuracy of measurement decreases over the course of the third day.
# Test meal: On the morning of the 2nd day of the CGM, there is a standardized test meal in the trial center. This test meal (TM) consists of 95 g of whole-wheat bread, 20 g of margarine, 25 g of fruit preserves, 25 g of cheese, 200 ml of orange juice, 200 ml of milk mix with banana, strawberry or cocoa with a total of 560 Kcal. Blood is taken from the patient prior to the TM (after night-time fasting period of at least 8 hours). Subsequently, the TM should be eaten within 15 min. From the 1st bite, the time is measured, and after 2 h have elapsed, a 2nd blood collection is performed. During the TM and during the two hours thereafter, the patient should move as little as possible so as not to falsify the monitoring.
# The primary target variable is the AUC (BG) TM of the glucose concentration in subcutaneous abdominal fat after a standardized test meal over a period of 2 hours. The AUC is calculated accordina to the trapezoidal rule.
# • Mean HbA1c, • Glycemic variability: • Standard deviation (SD) of the mean glucose concentration over 24 h (day 2), • MAGE—mean amplitude of glycemic excursion calculated as the mean from the glucose increases>1 SD of the mean glucose concentration over the course of 24 h • Glycemic load calculated by (FG+Peak+2hppG)·⅓ • Mean of C-peptide and intact proinsulin (fasting and 2 h pp) • Mean free fatty acids • Biomarkers of subclinical inflammation (hsCRP, PAI-1, leukocyte count fasting and 2 h postprandial) • Microalbuminuria (albumin/creatinine ratio) • Endothelial function at ball of thumb using laser Doppler (O2C) • Hypoglycemic intervals (time<3 mmol glucose) during CGM over 48 hours (day 2+3 after TM)
# In the study in the previous examples, 75 patients (45 men, 30 women, mean age: 60.7±9.2 years) were examined, whose first diagnosis of type 2 diabetes dated back to less than 5 years and whose HbA1c level was between 6.5 and 8.5%. The patients were treated with either metformin (MET, 1000 mg b.i.d. (n=3)) or insulin glargine (GLA) q.d. just before bedtime (n=3). The insulin dose was adjusted for a target plasma glucose concentration (FPG) of ≦5.6 mmol/L according to a standardized titration algorithm. At the start and end of the study, the HbA1c level and the plasma glucose, proinsulin and C-peptide concentrations were determined. […] All the patients received a standardized test meal on the second day of the continuous glucose monitoring for comparison of the interindividual postprandial (pp) glucose excursions.
Molecule,Glycemic load - visit 8,fall of the total area under the curve (AUC-IG) [mmol·min/L],AUC 2hpp value after a test meal - Visit 1,MAGE - visit 8,AUC day 2 - change,AUC day 2 - visit 8,AUC day 3 - change,AUC day 3 - visit 8,AUC between 5.6 and fasting on day 2 - change,AUC between 5.6 and fasting on day 3 - change,AUC 2 h after test meal change,AUC 2 h incremental after TM - change,Glycemic load - change,MAGE - change,AUC 2 h after test meal - visit 8,AUC between 5.6 and fasting on day 2 - visit 8,AUC between 5.6 and fasting on day 3 - visit 8,AUC 2 h incremental after TM - visit 8,decrease in the interstitial glucose level during CGM (Δ) [mmol/L],AUC 2hpp value after a test meal - Visit 8,other results
CN(C)C(=N)N=C(N)N [Metformin],8.5 (2.1),416.1 ± 537.6,256.50 (72.837),6.3 (2.4),−416.1,1978.5,−411.5,1972.5,−356.5,−317.4,−42.9 (73.1),−5.8 (31.8),−1.7 (2.7),−0.8 (3.3),213.6,−15.4,41.1,49.6 (25.0),1.4 ± 1.8,213.61 (52.844),–
Insulin glargine,8.8 (1.6),671.2 ± 507.9,287.38 (67.235),8.0 (2.3),−671.2,2000.3,−628.2,2045.0,−565.4,−571.5,−63.0 (5.4),−5.7 (40.4),−2.7 (1.9),−0.4 (3.4),224.4,−58.5,−11.6,68.3 (24.6),2.4 ± 1.8,224.38 (40.048),postprandial plasma glucose two hours after a test meal and differences in AUC-IG after the test meal (GLA vs. MET): showed no significance
